Test system: D. melanogaster nAChRs
Assay: Comparison of agonist activity between nAChRs expressed in X. laevis oocytes (one-way ANOVA, Kruskal-Wallis)
Assay type: cell-based
Method in brief: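 D. melanogaster nAChR subunits and co-factors expressed in X. laevis oocytes by cRNA injection, recorded after 3–4 days by two-electrode voltage clamp at −100 mV in saline with 0.5 μM atropine. Peak currents fitted to a Hill equation for EC50; pEC50 differences tested by one-way ANOVA or Kruskal-Wallis.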

[1] = Dα1/Dα2/Dα3/Dβ1/Dβ2 vs. Dα1/Dα2/Dβ1/Dβ2/Dβ3
[2] = Dα1/Dα2/Dα3/Dβ1/Dβ2 vs. Dα1/Dα3/Dα4/Dβ1/Dβ2
[3] = Dα1/Dα2/Dα3/Dβ1/Dβ2 vs. Dα1/Dα3/Dβ1/Dβ2/Dβ3
[4] = Dα1/Dα2/Dα3/Dβ1/Dβ2 vs. Dα2/Dα3/Dα4/Dβ1/Dβ2
[5] = Dα1/Dα2/Dα3/Dβ1/Dβ2 vs. Dα2/Dα3/Dβ1/Dβ2/Dβ3
[6] = Dα1/Dα2/Dα3/Dβ1 vs. Dα1/Dα2/Dα3/Dβ1/Dβ2
[7] = Dα1/Dα2/Dα3/Dβ1 vs. Dα1/Dα2/Dβ1/Dβ2
[8] = Dα1/Dα2/Dα3/Dβ1 vs. Dα1/Dα3/Dβ1/Dβ2
[9] = Dα1/Dα2/Dα3/Dβ1 vs. Dα1/Dβ1/Dβ2
[10] = Dα1/Dα2/Dα3/Dβ1 vs. Dα2/Dα3/Dβ1/Dβ2
[11] = Dα1/Dα2/Dα3/Dβ1 vs. Dα3/Dβ1/Dβ2
[12] = Dα1/Dα2/Dβ1/Dβ2 vs. Dα1/Dα2/Dα3/Dβ1/Dβ2
[13] = Dα1/Dα2/Dβ1/Dβ2 vs. Dα2/Dα3/Dβ1/Dβ2
[14] = Dα1/Dα2/Dβ1 vs. Dα1/Dα2/Dα3/Dβ1
[15] = Dα1/Dα2/Dβ1 vs. Dα1/Dα2/Dα3/Dβ1/Dβ2
[16] = Dα1/Dα2/Dβ1 vs. Dα1/Dα2/Dβ1/Dβ2
[17] = Dα1/Dα2/Dβ1 vs. Dα1/Dα3/Dβ1/Dβ2
[18] = Dα1/Dα2/Dβ1 vs. Dα2/Dα3/Dβ1/Dβ2
[19] = Dα1/Dα3/Dβ1/Dβ2 vs. Dα1/Dα2/Dα3/Dβ1/Dβ2
[20] = Dα1/Dα3/Dβ1/Dβ2 vs. Dα1/Dα2/Dβ1/Dβ2
[21] = Dα1/Dα3/Dβ1/Dβ2 vs. Dα2/Dα3/Dβ1/Dβ2
[22] = Dα1/Dα3/Dβ1 vs. Dα1/Dα2/Dα3/Dβ1
[23] = Dα1/Dα3/Dβ1 vs. Dα1/Dα2/Dα3/Dβ1/Dβ2
[24] = Dα1/Dα3/Dβ1 vs. Dα1/Dα2/Dβ1/Dβ2
[25] = Dα1/Dα3/Dβ1 vs. Dα1/Dα3/Dβ1/Dβ2
[26] = Dα1/Dα3/Dβ1 vs. Dα2/Dα3/Dβ1/Dβ2
[27] = Dα1/Dβ1/Dβ2 vs. Dα1/Dα2/Dα3/Dβ1/Dβ2
[28] = Dα1/Dβ1/Dβ2 vs. Dα1/Dα2/Dβ1/Dβ2
[29] = Dα1/Dβ1/Dβ2 vs. Dα1/Dα3/Dβ1/Dβ2
[30] = Dα1/Dβ1/Dβ2 vs. Dα2/Dα3/Dβ1/Dβ2
[31] = Dα1/Dβ1 vs. Dα1/Dα2/Dα3/Dβ1/Dβ2
[32] = Dα2/Dα3/Dβ1/Dβ2 vs. Dα1/Dα2/Dα3/Dβ1/Dβ2
[33] = Dα2/Dα3/Dβ1 vs. Dα1/Dα2/Dα3/Dβ1
[34] = Dα2/Dα3/Dβ1 vs. Dα1/Dα2/Dα3/Dβ1/Dβ2
[35] = Dα2/Dα3/Dβ1 vs. Dα1/Dα2/Dβ1/Dβ2
[36] = Dα2/Dα3/Dβ1 vs. Dα1/Dα3/Dβ1/Dβ2
[37] = Dα2/Dα3/Dβ1 vs. Dα2/Dα3/Dβ1/Dβ2
[38] = Dα3/Dβ1/Dβ2 vs. Dα1/Dα2/Dα3/Dβ1/Dβ2
[39] = Dα3/Dβ1/Dβ2 vs. Dα1/Dα2/Dβ1/Dβ2
[40] = Dα3/Dβ1/Dβ2 vs. Dα1/Dα3/Dβ1/Dβ2
[41] = Dα3/Dβ1/Dβ2 vs. Dα2/Dα3/Dβ1/Dβ2
[42] = Dα3/Dβ1 vs. Dα1/Dα2/Dα3/Dβ1/Dβ2

O=[N+]([O-])NC1=NCCN1Cc1ccc(Cl)nc1 [Imidacloprid, imidacloprid]
Difference of Imax values, nAChRs compared (Dα1/Dα2/Dα3/Dβ1/Dβ2 vs. Dα1/Dα2/Dα4/Dβ1/Dβ2): -0.030
Difference of Imax values, nAChRs compared [1]: 0.062
Difference of pEC50 values, nAChRs compared [1]: 0.21
Difference of Imax values, nAChRs compared [2]: 0.041
Difference of pEC50 values, nAChRs compared [2]: -0.83
Difference of Imax values, nAChRs compared [3]: 0.002
Difference of pEC50 values, nAChRs compared [3]: -1.25
Difference of Imax values, nAChRs compared [4]: 0.115
Difference of pEC50 values, nAChRs compared [4]: -0.93
Difference of Imax values, nAChRs compared [5]: 0.121
Difference of pEC50 values, nAChRs compared [5]: -1.28
Difference of Imax values [6]: -0.048
Difference of pEC50 values [6]: 0.61
Difference of Imax values [7]: -0.071
Difference of pEC50 values [7]: 0.63
Difference of Imax values [8]: -0.236
Difference of pEC50 values [8]: -0.44
Difference of Imax values [9]: 0.018
Difference of pEC50 values [9]: 0.09
Difference of Imax values [10]: -0.031
Difference of pEC50 values [10]: 0.08
Difference of Imax values [11]: 0.055
Difference of pEC50 values [11]: -1.20
Difference of Imax values [12]: 0.023
Difference of pEC50 values [12]: -0.02
Difference of Imax values [13]: 0.040
Difference of pEC50 values [13]: -0.55
Difference of Imax values [14]: -0.063
Difference of pEC50 values [14]: -0.37
Difference of Imax values [15]: -0.111
Difference of pEC50 values [15]: 0.24
Difference of Imax values [16]: -0.134
Difference of pEC50 values [16]: 0.26
Difference of Imax values [17]: -0.299
Difference of pEC50 values [17]: -0.81
Difference of Imax values (Dα1/Dα2/Dβ1 vs. Dα1/Dβ1/Dβ2): -0.045
Difference of pEC50 values (Dα1/Dα2/Dβ1 vs. Dα1/Dβ1/Dβ2): -0.28
Difference of Imax values (Dα1/Dα2/Dβ1 vs. Dα2/Dα3/Dβ1): -0.070
Difference of pEC50 values (Dα1/Dα2/Dβ1 vs. Dα2/Dα3/Dβ1): -0.17
Difference of Imax values [18]: -0.094
Difference of pEC50 values [18]: -0.29
Difference of Imax values (Dα1/Dα2/Dβ1 vs. Dα3/Dβ1/Dβ2): -0.008
Difference of pEC50 values (Dα1/Dα2/Dβ1 vs. Dα3/Dβ1/Dβ2): -1.57
Difference of Imax values [19]: 0.188
Difference of pEC50 values [19]: 1.05
Difference of Imax values [20]: 0.165
Difference of pEC50 values [20]: 1.07
Difference of Imax values [21]: 0.205
Difference of pEC50 values [21]: 0.52
Difference of Imax values [22]: 0.076
Difference of pEC50 values [22]: 0.50
Difference of Imax values [23]: 0.028
Difference of pEC50 values [23]: 1.11
Difference of Imax values (Dα1/Dα3/Dβ1 vs. Dα1/Dα2/Dβ1): 0.139
Difference of pEC50 values (Dα1/Dα3/Dβ1 vs. Dα1/Dα2/Dβ1): 0.87
Difference of Imax values [24]: 0.005
Difference of pEC50 values [24]: 1.13
Difference of Imax values [25]: -0.160
Difference of pEC50 values [25]: 0.06
Difference of Imax values (Dα1/Dα3/Dβ1 vs. Dα1/Dβ1/Dβ2): 0.094
Difference of pEC50 values (Dα1/Dα3/Dβ1 vs. Dα1/Dβ1/Dβ2): 0.59
Difference of Imax values (Dα1/Dα3/Dβ1 vs. Dα2/Dα3/Dβ1): 0.069
Difference of pEC50 values (Dα1/Dα3/Dβ1 vs. Dα2/Dα3/Dβ1): 0.70
Difference of Imax values [26]: 0.045
Difference of pEC50 values [26]: 0.58
Difference of Imax values (Dα1/Dα3/Dβ1 vs. Dα3/Dβ1/Dβ2): 0.131
Difference of pEC50 values (Dα1/Dα3/Dβ1 vs. Dα3/Dβ1/Dβ2): -0.70
Difference of Imax values [27]: -0.066
Difference of pEC50 values [27]: 0.52
Difference of Imax values [28]: -0.089
Difference of pEC50 values [28]: 0.54
Difference of Imax values [29]: -0.254
Difference of pEC50 values [29]: -0.53
Difference of Imax values [30]: -0.049
Difference of pEC50 values [30]: -0.01
Difference of Imax values (Dα1/Dβ1/Dβ2 vs. Dα3/Dβ1/Dβ2): 0.037
Difference of pEC50 values (Dα1/Dβ1/Dβ2 vs. Dα3/Dβ1/Dβ2): -1.29
Difference of Imax values (Dα1/Dβ1 vs. Dα1/Dα2/Dα3/Dβ1): 0.028
Difference of pEC50 values (Dα1/Dβ1 vs. Dα1/Dα2/Dα3/Dβ1): 0.08
Difference of Imax values [31]: -0.020
Difference of pEC50 values [31]: 0.69
Difference of Imax values (Dα1/Dβ1 vs. Dα1/Dα2/Dβ1): 0.091
Difference of pEC50 values (Dα1/Dβ1 vs. Dα1/Dα2/Dβ1): 0.45
Difference of Imax values (Dα1/Dβ1 vs. Dα1/Dα2/Dβ1/Dβ2): -0.043
Difference of pEC50 values (Dα1/Dβ1 vs. Dα1/Dα2/Dβ1/Dβ2): 0.71
Difference of Imax values (Dα1/Dβ1 vs. Dα1/Dα3/Dβ1): -0.048
Difference of pEC50 values (Dα1/Dβ1 vs. Dα1/Dα3/Dβ1): -0.42
Difference of Imax values (Dα1/Dβ1 vs. Dα1/Dα3/Dβ1/Dβ2): -0.208
Difference of pEC50 values (Dα1/Dβ1 vs. Dα1/Dα3/Dβ1/Dβ2): -0.36
Difference of Imax values (Dα1/Dβ1 vs. Dα1/Dβ1/Dβ2): 0.046
Difference of pEC50 values (Dα1/Dβ1 vs. Dα1/Dβ1/Dβ2): 0.17
Difference of Imax values (Dα1/Dβ1 vs. Dα2/Dα3/Dβ1): 0.021
Difference of pEC50 values (Dα1/Dβ1 vs. Dα2/Dα3/Dβ1): 0.28
Difference of Imax values (Dα1/Dβ1 vs. Dα2/Dα3/Dβ1/Dβ2): -0.003
Difference of pEC50 values (Dα1/Dβ1 vs. Dα2/Dα3/Dβ1/Dβ2): 0.16
Difference of Imax values (Dα1/Dβ1 vs. Dα3/Dβ1): 0.090
Difference of pEC50 values (Dα1/Dβ1 vs. Dα3/Dβ1): -1.16
Difference of Imax values (Dα1/Dβ1 vs. Dα3/Dβ1/Dβ2): 0.083
Difference of pEC50 values (Dα1/Dβ1 vs. Dα3/Dβ1/Dβ2): -1.12
Difference of Imax values [32]: -0.017
Difference of pEC50 values [32]: 0.53
Difference of Imax values [33]: 0.007
Difference of pEC50 values [33]: -0.20
Difference of Imax values [34]: -0.041
Difference of pEC50 values [34]: 0.41
Difference of Imax values [35]: -0.064
Difference of pEC50 values [35]: 0.43
Difference of Imax values [36]: -0.229
Difference of pEC50 values [36]: -0.64
Difference of Imax values (Dα2/Dα3/Dβ1 vs. Dα1/Dβ1/Dβ2): 0.025
Difference of pEC50 values (Dα2/Dα3/Dβ1 vs. Dα1/Dβ1/Dβ2): -0.11
Difference of Imax values [37]: -0.024
Difference of pEC50 values [37]: -0.12
Difference of Imax values (Dα2/Dα3/Dβ1 vs. Dα3/Dβ1/Dβ2): 0.062
Difference of pEC50 values (Dα2/Dα3/Dβ1 vs. Dα3/Dβ1/Dβ2): -1.40
Difference of Imax values [38]: -0.103
Difference of pEC50 values [38]: 1.81
Difference of Imax values [39]: -0.126
Difference of pEC50 values [39]: 1.83
Difference of Imax values [40]: -0.291
Difference of pEC50 values [40]: 0.76
Difference of Imax values [41]: -0.086
Difference of pEC50 values [41]: 1.28
Difference of Imax values (Dα3/Dβ1 vs. Dα1/Dα2/Dα3/Dβ1): -0.062
Difference of pEC50 values (Dα3/Dβ1 vs. Dα1/Dα2/Dα3/Dβ1): 1.24
Difference of Imax values [42]: -0.110
Difference of pEC50 values [42]: 1.85
Difference of Imax values (Dα3/Dβ1 vs. Dα1/Dα2/Dβ1): 0.001
Difference of pEC50 values (Dα3/Dβ1 vs. Dα1/Dα2/Dβ1): 1.61
Difference of Imax values (Dα3/Dβ1 vs. Dα1/Dα2/Dβ1/Dβ2): -0.133
Difference of pEC50 values (Dα3/Dβ1 vs. Dα1/Dα2/Dβ1/Dβ2): 1.87
Difference of Imax values (Dα3/Dβ1 vs. Dα1/Dα3/Dβ1): -0.138
Difference of pEC50 values (Dα3/Dβ1 vs. Dα1/Dα3/Dβ1): 0.74
Difference of Imax values (Dα3/Dβ1 vs. Dα1/Dα3/Dβ1/Dβ2): -0.298
Difference of pEC50 values (Dα3/Dβ1 vs. Dα1/Dα3/Dβ1/Dβ2): 0.80
Difference of Imax values (Dα3/Dβ1 vs. Dα1/Dβ1/Dβ2): -0.044
Difference of pEC50 values (Dα3/Dβ1 vs. Dα1/Dβ1/Dβ2): 1.33
Difference of Imax values (Dα3/Dβ1 vs. Dα2/Dα3/Dβ1): -0.069
Difference of pEC50 values (Dα3/Dβ1 vs. Dα2/Dα3/Dβ1): 1.44
Difference of Imax values (Dα3/Dβ1 vs. Dα2/Dα3/Dβ1/Dβ2): -0.093
Difference of pEC50 values (Dα3/Dβ1 vs. Dα2/Dα3/Dβ1/Dβ2): 1.32
Difference of Imax values (Dα3/Dβ1 vs. Dα3/Dβ1/Dβ2): -0.007
Difference of pEC50 values (Dα3/Dβ1 vs. Dα3/Dβ1/Dβ2): 0.04

— publication PMC9934367, “Functional impact of subunit composition and compensation on Drosophila melanogaster nicotinic receptors–targets of neonicotinoids” (PLOS Genetics, 2023)
